US20140303092A1 (CHIMERIX, INC., priority 2011, published 2014)

Assay: Study HDP-CDV-201: safety and tolerability (adverse events, laboratory abnormalities, discontinuations)
Format: in vivo, human (adult allogeneic HSCT recipients)
Details: 40 mg QW
Method: Clinical Studies of HDP-CDV were performed and described in detail in the following Examples. For example, HDP-CDV-201 is a placebo-controlled, dose-escalating trial in HSCT CMV (R+) recipients, evaluating the ability of HDP-CDV to prevent or control CMV infection was carried out. Five cohorts were established in which participants or subjects received either placebo or the HDP-CDV orally, in doses ranging from 40 mg weekly (QW) to 200 mg twice weekly (BIW). Subjects who were post-HSCT were enrolled at the time of engraftment and randomized to HDP-CDV or placebo (3 to 1 ratio) and received blinded therapy until approximately 100 day post-transplantation. HDP-CDV doses were 40 mg QW, 100 mg QW, 200 mg QW, 200 mg BIW and 100 mg BIW. Escalation to the next dose was decided by the data monitoring committee after review of the safety data from the previous Cohort. Subjects who developed CMV disease or CMV infection requiring pre-emptive therapy with local standard of care were discontinued from blinded therapy and followed for 4 weeks. Subjects who completed treatment with blinded therapy were followed for 8 weeks post-therapy.
Data from Study HDP-CDV-201 also provided characterization of the safety and tolerability profile of HDP-CDV when administered for the prevention or control of CMV infection in high risk (R^+) post-HSCT adult subjects.
The Safety population (SAFETY) included all randomized subjects who took at least one dose of study treatment. This population was used to summarize safety outcomes based on the treatment actually received, in cases where a subject was treated contrary to the randomization schedule.
The safety and tolerability profile of HDP-CDV, including subject demographics and Baseline characteristics; the AE profile; and laboratory abnormalities of interest were analyzed in the cohorts followed in this investigation.
Subjects completing the treatment period received a full course of study medication; those completing the entire study attended visits through 8 weeks of follow up. Subjects who discontinued treatment may have done so for protocol specified reasons (e.g. development of clinically significant CMV infection requiring preemptive treatment with excluded anti-CMV medications) or for other reasons (e.g., withdrawal, adverse events, loss to follow-up). The disposition of subjects in Study HDP-CDV-201 during the double-blind, placebo-controlled treatment period (through Week 11) is listed by dosing Cohort in TABLE 23.
Adverse events were examined by severity to ensure that all safety signals were identified in this study population. Because of the frequency of events in HSCT recipients, particular attention was given to evaluation of Grade 3 […], 4 (severe), and 5 (fatal) adverse events.
Only those preferred terms for which at least one Grade 3 or higher event was experienced in any treatment group are listed. Cytomegalovirus-related AEs are excluded from this analysis.
HDP-CDV is a lipid conjugate of CDV. Because CDV is known to have adverse effects on renal function and bone marrow, decreased GFR and persistent neutropenia were identified as AEs of special interest. Key renal and hematological (TABLE 30) laboratory parameters were measured and listed below by Study HDP-CDV-201 treatment groups. TABLE 30 includes abnormal levels of serum creatinine, neutrophils, platelets, WBCs, and hemoglobin and includes data at Screening and during the treatment period.
A common metric for unit based dosing of medications is by weight (mg/kg). When the distribution of weights was examined for all subjects participating in the study, the median was 78 kg and the lower 25th percentile weight was approximately 65 kg, which translates to a cut-off of ˜3 mg/kg for a 200 mg total weekly dose. Based upon this approach, a cut-off of 3 mg/kg was used to assess the frequency of diarrhea and associated GI AEs reported for the subjects in Cohorts 3 or 4a (TABLE 40).

CCCCCCCCCCCCCCCCOCCCOP(=O)(O)COC(CO)Cn1ccc(N)nc1=O (stereo not drawn) [HDP-CDV]
1 (4.0%): TEAE ALT increased, Grade 2 | TEAE ALT increased, Grade 3 | TEAE AML, Recurrent, Grade 4 | TEAE AST increased, Frequency | TEAE AST increased, Grade 3 | TEAE Abdominal pain, Grade 3 | TEAE Acute GVHD, Grade 3 | TEAE Decreased appetite, Grade 2 | TEAE Decreased appetite, Grade 3 | TEAE Fatigue, Frequency | TEAE Generalized oedema, Frequency | TEAE Generalized oedema, Grade 2 | TEAE Hyperbilirubinaemia, Frequency | TEAE Hyperbilirubinaemia, Grade 4 | TEAE Hyperglycaemia, Frequency | TEAE Hyperglycaemia, Grade 2 | TEAE Hyperkalemia, Frequency | TEAE Hypocalcaemia, Frequency | TEAE Hypocalcaemia, Grade 2 | TEAE Hyponatraemia, Grade 2 | TEAE Hyponatraemia, Grade 3 | TEAE Leukocytosis, Frequency | TEAE Nausea, Grade 3 | TEAE Pneumonia, Frequency
6 (24.0%): TEAE Acute GVHD, Frequency | TEAE Nausea, Frequency
3 (12.0%): TEAE AML, Recurrent, Frequency | TEAE Diarrhea, Frequency | TEAE Hyponatraemia, Frequency
2 (8.0%): TEAE ALT increased, Frequency | TEAE Acute GVHD, Grade 2 | TEAE Diarrhea, Grade 2 | TEAE Hypokalaemia, Grade 3 | TEAE Nausea, Grade 2 | TEAE Neutropenia, Frequency | TEAE Neutropenia, Grade 3
0: TEAE ALT increased, Grade 4 | TEAE ALT increased, Grade 5 | TEAE AML, Recurrent, Grade 2 | TEAE AML, Recurrent, Grade 3 | TEAE AML, Recurrent, Grade 5 | TEAE AST increased, Grade 2 | TEAE AST increased, Grade 4 | TEAE AST increased, Grade 5 | TEAE Abdominal pain, Grade 2 | TEAE Abdominal pain, Grade 4 | TEAE Abdominal pain, Grade 5 | TEAE Arthralgias, Frequency | TEAE Arthralgias, Grade 2 | TEAE Arthralgias, Grade 3 | TEAE Arthralgias, Grade 4 | TEAE Arthralgias, Grade 5 | TEAE Back Pain, Frequency | TEAE Back Pain, Grade 2 | TEAE Back Pain, Grade 3 | TEAE Back Pain, Grade 4 | TEAE Back Pain, Grade 5 | TEAE Decreased appetite, Grade 4 | TEAE Decreased appetite, Grade 5 | TEAE Diarrhea, Grade 3 | TEAE Diarrhea, Grade 4 | TEAE Diarrhea, Grade 5 | TEAE Fatigue, Grade 2 | TEAE Fatigue, Grade 3 | TEAE Fatigue, Grade 4 | TEAE Fatigue, Grade 5 | TEAE GGT Increased, Frequency | TEAE GGT Increased, Grade 2 | TEAE GGT Increased, Grade 3 | TEAE GGT Increased, Grade 4 | TEAE GGT Increased, Grade 5 | TEAE Generalized oedema, Grade 3 | TEAE Generalized oedema, Grade 4 | TEAE Generalized oedema, Grade 5 | TEAE Hyperbilirubinaemia, Grade 2 | TEAE Hyperbilirubinaemia, Grade 3 | TEAE Hyperbilirubinaemia, Grade 5 | TEAE Hyperglycaemia, Grade 3 | TEAE Hyperglycaemia, Grade 4 | TEAE Hyperglycaemia, Grade 5 | TEAE Hyperkalemia, Grade 2 | TEAE Hyperkalemia, Grade 3 | TEAE Hyperkalemia, Grade 4 | TEAE Hyperkalemia, Grade 5 | TEAE Hypocalcaemia, Grade 3 | TEAE Hypocalcaemia, Grade 4 | TEAE Hypocalcaemia, Grade 5 | TEAE Hypokalaemia, Grade 2 | TEAE Hypokalaemia, Grade 4 | TEAE Hypokalaemia, Grade 5 | TEAE Hyponatraemia, Grade 4 | TEAE Hyponatraemia, Grade 5 | TEAE LFT Abnormal, Frequency | TEAE LFT Abnormal, Grade 2 | TEAE LFT Abnormal, Grade 3 | TEAE LFT Abnormal, Grade 4 | TEAE LFT Abnormal, Grade 5 | TEAE Leukocytosis, Grade 2 | TEAE Leukocytosis, Grade 3 | TEAE Leukocytosis, Grade 4 | TEAE Leukocytosis, Grade 5 | TEAE Nausea, Grade 4 | TEAE Nausea, Grade 5 | TEAE Neutropenia, Grade 2 | TEAE Neutropenia, Grade 4 | TEAE Neutropenia, Grade 5 | TEAE Pneumonia, Grade 2 | TEAE Pneumonia, Grade 3
4 (16.0%): TEAE Abdominal pain, Frequency | TEAE Decreased appetite, Frequency | TEAE Hypokalaemia, Frequency
